This data set deals with PRNP. The data set is described as follows: mouse, dose not given. The note with it: ASO.

HELM strings list units from the 5' end as sugar, base in round brackets, then linkage (d deoxyribose, r ribose, m 2'-O-methyl, p phosphodiester). Strings are as the collection lists them; they lack the last nucleoside at the 3' end of the tested compound. [moe] = 2'-O-(2-methoxyethyl) (MOE); [sp] = phosphorothioate linkage; [m5C] = 5-methylcytosine

“RNA1{[moe]([m5C])[sp].[moe](T)p.[moe](G)p.[moe](T)p.[moe]([m5C])[sp].d(A)[sp].d(T)[sp].d([m5C])[sp].d(T)[sp].d([m5C])[sp].d([m5C])[sp].d(A)[sp].d(A)[sp].d([m5C])[sp].d([m5C])[sp].[moe](T)p.[moe](A)p.[moe](A)[sp].[moe](G)}$$$$ (last 3' nucleoside missing)”: the 3 h FOB score was determined as 1 score 0-7. “RNA1{[moe]([m5C])[sp].[moe](T)p.[moe](G)p.[moe]([m5C])p.[moe]([m5C])[sp].d(T)[sp].d(T)[sp].d(A)[sp].d(A)[sp].d(T)[sp].d(T)[sp].d(A)[sp].d([m5C])[sp].d([m5C])[sp].d(T)[sp].[moe](A)p.[moe](T)p.[moe](A)[sp].[moe](G)}$$$$ (last 3' nucleoside missing)”: the 3 h FOB score was found to be 0.25 score 0-7. The result for “RNA1{[moe]([m5C])[sp].[moe](T)p.[moe](T)p.[moe](A)p.[moe](A)[sp].d(T)[sp].d(T)[sp].d(A)[sp].d(G)[sp].d(T)[sp].d(T)[sp].d(A)[sp].d([m5C])[sp].d(A)[sp].d(T)[sp].[moe]([m5C])p.[moe](G)p.[moe](G)[sp].[moe](G)}$$$$ (last 3' nucleoside missing)” reads 4.5 score 0-7; that for “RNA1{[moe]([m5C])[sp].[moe](T)p.[moe](T)p.[moe](A)p.[moe](T)[sp].d(T)[sp].d(A)[sp].d(T)[sp].d(T)[sp].d([m5C])[sp].d(A)[sp].d(T)[sp].d(G)[sp].d(T)[sp].d(T)[sp].[moe]([m5C])p.[moe](T)p.[moe]([m5C])[sp].[moe]([m5C])}$$$$ (last 3' nucleoside missing)”, 1.25 score 0-7; that for “RNA1{[moe]([m5C])[sp].[moe](T)p.[moe](T)p.[moe](A)p.[moe](T)p.d(T)[sp].d(A)[sp].d(T)[sp].d(T)[sp].d([m5C])[sp].d(A)[sp].d(T)[sp].d(G)[sp].d(T)[sp].[moe](T)p.[moe]([m5C])p.[moe](T)[sp].[moe]([m5C])}$$$$ (last 3' nucleoside missing)”, 0 score 0-7.

Turning to “RNA1{[moe]([m5C])[sp].[moe](T)p.[moe](T)p.[moe](A)p.[moe]([m5C])[sp].d(T)[sp].d([m5C])[sp].d(G)[sp].d(G)[sp].d([m5C])[sp].d(T)[sp].d(T)[sp].d(G)[sp].d(T)[sp].d(T)[sp].[moe]([m5C])p.[moe]([m5C])p.[moe](A)[sp].[moe]([m5C])}$$$$ (last 3' nucleoside missing)”, the 3 h FOB score stood at 0 score 0-7. With “RNA1{[moe]([m5C])[sp].[moe](T)p.[moe](T)p.[moe](A)p.[moe]([m5C])p.d(T)[sp].d([m5C])[sp].d(G)[sp].d(G)[sp].d([m5C])[sp].d(T)[sp].d(T)[sp].d(G)[sp].d(T)[sp].[moe](T)p.[moe]([m5C])p.[moe]([m5C])[sp].[moe](A)}$$$$ (last 3' nucleoside missing)”, the 3 h FOB score came to 1.75 score 0-7. The result for “RNA1{[moe]([m5C])[sp].[moe](T)p.[moe](T)p.[moe](T)p.[moe](T)[sp].d([m5C])[sp].d(T)[sp].d(T)[sp].d(T)[sp].d(G)[sp].d([m5C])[sp].d(A)[sp].d([m5C])[sp].d(A)[sp].d([m5C])[sp].[moe](T)p.[moe](G)p.[moe](A)[sp].[moe]([m5C])}$$$$ (last 3' nucleoside missing)” reads 4 score 0-7. Next, “RNA1{[moe]([m5C])[sp].[moe](T)p.[moe](T)p.[moe](T)p.[moe]([m5C])[sp].d([m5C])[sp].d(T)[sp].d(G)[sp].d(A)[sp].d(T)[sp].d(A)[sp].d(G)[sp].d(T)[sp].d(T)[sp].d([m5C])[sp].[moe](A)p.[moe]([m5C])p.[moe](T)[sp].[moe](G)}$$$$ (last 3' nucleoside missing)”: 2.5 score 0-7; “RNA1{[moe]([m5C])[sp].[moe](T)p.[moe]([m5C])p.[moe](A)p.[moe](G)[sp].d(G)[sp].d(T)[sp].d([m5C])[sp].d(T)[sp].d(A)[sp].d([m5C])[sp].d(T)[sp].d([m5C])[sp].d(T)[sp].d(A)[sp].[moe](T)p.[moe](G)p.[moe](T)[sp].[moe](T)}$$$$ (last 3' nucleoside missing)”: 0 score 0-7; “RNA1{[moe]([m5C])[sp].[moe](T)p.[moe]([m5C])p.[moe](T)p.[moe](A)[sp].d(T)[sp].d(G)[sp].d(T)[sp].d(T)[sp].d(T)[sp].d(T)[sp].d([m5C])[sp].d([m5C])[sp].[moe](A)p.[moe](G)p.[moe](T)[sp].[moe](G)}$$$$ (last 3' nucleoside missing)”: 0.75 score 0-7. The result for “RNA1{[moe]([m5C])[sp].[moe](T)p.[moe]([m5C])p.[moe](T)p.[moe](A)[sp].d(T)[sp].d(G)[sp].d(T)[sp].d(T)[sp].d(T)[sp].d(T)[sp].d([m5C])[sp].d([m5C])[sp].d(A)[sp].d(G)[sp].[moe](T)p.[moe](G)p.[moe]([m5C])[sp].[moe]([m5C])}$$$$ (last 3' nucleoside missing)” reads 1 score 0-7. Substance “RNA1{[moe]([m5C])[sp].[moe](T)p.[moe]([m5C])p.[moe](T)p.[moe](A)p.[moe](T)p.d(G)[sp].d(T)[sp].d(T)[sp].d(T)[sp].d(T)[sp].d([m5C])[sp].d([m5C])[sp].d(A)[sp].d(G)[sp].d(T)[sp].[moe](G)p.[moe]([m5C])[sp].[moe]([m5C])}$$$$ (last 3' nucleoside missing)” gave a 3 h FOB score of 2 score 0-7. The result for “RNA1{[moe]([m5C])[sp].[moe](T)p.[moe]([m5C])p.[moe](T)p.[moe](A)p.d(T)[sp].d(G)[sp].d(T)[sp].d(T)[sp].d(T)[sp].d(T)[sp].d([m5C])[sp].d([m5C])[sp].d(A)[sp].[moe](G)[sp].[moe](T)p.[moe](G)p.[moe]([m5C])}$$$$ (last 3' nucleoside missing)” reads 1 score 0-7; that for “RNA1{[moe]([m5C])[sp].[moe](T)p.[moe]([m5C])p.[moe](T)p.[moe](A)p.d(T)[sp].d(G)[sp].d(T)[sp].d(T)[sp].d(T)[sp].d(T)[sp].d([m5C])[sp].d([m5C])[sp].d(A)[sp].[moe](G)p.[moe](T)p.[moe](G)[sp].[moe]([m5C])}$$$$ (last 3' nucleoside missing)”, 0.25 score 0-7; that for “RNA1{[moe]([m5C])[sp].[moe](T)p.[moe]([m5C])p.[moe](T)p.d(A)[sp].d(T)[sp].d(G)[sp].d(T)[sp].d(T)[sp].d(T)[sp].d(T)[sp].d([m5C])[sp].d([m5C])[sp].d(A)[sp].[moe](G)p.[moe](T)p.[moe](G)p.[moe]([m5C])[sp].[moe]([m5C])}$$$$ (last 3' nucleoside missing)”, 3.25 score 0-7. The substance “RNA1{[moe]([m5C])[sp].[moe](T)p.[moe]([m5C])p.d(T)[sp].d(A)[sp].d(T)[sp].d(G)[sp].d(T)[sp].d(T)[sp].d(T)[sp].d(T)[sp].d([m5C])[sp].d([m5C])[sp].[moe](A)p.[moe](G)p.[moe](T)p.[moe](G)p.[moe]([m5C])[sp].[moe]([m5C])}$$$$ (last 3' nucleoside missing)” gave a 3 h FOB score of 3 score 0-7.

Regarding “RNA1{[moe]([m5C])[sp].[moe]([m5C])p.[moe](A)p.[moe](G)p.[moe](A)[sp].d(A)[sp].d(G)[sp].d(T)[sp].d(T)[sp].d(T)[sp].d(A)[sp].d(A)[sp].d([m5C])[sp].d(A)[sp].d(T)[sp].[moe](A)p.[moe](T)p.[moe](T)[sp].[moe](T)}$$$$ (last 3' nucleoside missing)”, the 3 h FOB score was found to be 0 score 0-7. As for “RNA1{[moe]([m5C])[sp].[moe]([m5C])p.[moe](A)p.[moe](G)p.[moe](A)[sp].d(G)[sp].d(G)[sp].d(T)[sp].d(T)[sp].d([m5C])[sp].d(A)[sp].d(G)[sp].d(T)[sp].d(G)[sp].d(T)[sp].[moe](T)p.[moe](G)p.[moe](T)[sp].[moe](G)}$$$$ (last 3' nucleoside missing)”, the 3 h FOB score is 6.25 score 0-7.

The substance “RNA1{[moe]([m5C])[sp].[moe]([m5C])p.[moe](A)p.[moe](T)p.[moe](T)[sp].d(T)[sp].d(T)[sp].d([m5C])[sp].d(T)[sp].d(G)[sp].d(T)[sp].d(G)[sp].d([m5C])[sp].d(T)[sp].d(T)[sp].[moe](T)p.[moe](T)p.[moe]([m5C])[sp].[moe]([m5C])}$$$$ (last 3' nucleoside missing)” came in with a 3 h FOB score of 4 score 0-7. Next, “RNA1{[moe]([m5C])[sp].[moe]([m5C])p.[moe](A)p.[moe]([m5C])p.[moe](A)[sp].d(T)[sp].d(A)[sp].d(T)[sp].d(A)[sp].d(G)[sp].d(G)[sp].d(G)[sp].d(T)[sp].d([m5C])[sp].d([m5C])[sp].[moe](T)p.[moe](T)p.[moe](T)[sp].[moe](A)}$$$$ (last 3' nucleoside missing)”: 1.5 score 0-7. Next, “RNA1{[moe]([m5C])[sp].[moe]([m5C])p.[moe](G)p.[moe](T)p.[moe](T)[sp].d([m5C])[sp].d(A)[sp].d(T)[sp].d([m5C])[sp].d(T)[sp].d(T)[sp].d(A)[sp].d(T)[sp].d(T)[sp].d([m5C])[sp].[moe]([m5C])p.[moe]([m5C])p.[moe](A)[sp].[moe](T)}$$$$ (last 3' nucleoside missing)”: 0 score 0-7; “RNA1{[moe]([m5C])[sp].[moe]([m5C])p.[moe](T)p.[moe](G)p.[moe](T)[sp].d(T)[sp].d(A)[sp].d(A)[sp].d(T)[sp].d(G)[sp].d(G)[sp].d(T)[sp].d(G)[sp].d(T)[sp].d([m5C])[sp].[moe]([m5C])p.[moe](A)p.[moe]([m5C])[sp].[moe](T)}$$$$ (last 3' nucleoside missing)”: 2.5 score 0-7.

On to “RNA1{[moe]([m5C])[sp].[moe]([m5C])p.[moe](T)p.[moe](T)p.[moe](T)[sp].d([m5C])[sp].d(A)[sp].d(T)[sp].d(A)[sp].d(T)[sp].d(A)[sp].d(T)[sp].d(G)[sp].d(T)[sp].d(T)[sp].[moe](A)p.[moe]([m5C])p.[moe](A)[sp].[moe](G)}$$$$ (last 3' nucleoside missing)”, for which the 3 h FOB score was 5 score 0-7.

With “RNA1{[moe]([m5C])[sp].[moe]([m5C])p.[moe]([m5C])p.[moe](A)p.[moe](G)[sp].d(T)[sp].d(G)[sp].d(T)[sp].d(T)[sp].d([m5C])[sp].d([m5C])[sp].d(A)[sp].d(T)[sp].d([m5C])[sp].d([m5C])[sp].[moe](T)p.[moe]([m5C])p.[moe]([m5C])[sp].[moe](A)}$$$$ (last 3' nucleoside missing)”, the 3 h FOB score was 2 score 0-7.
